The test system of data set [1] is children with non-syndromic autism spectrum disorder (ASD) and language impairment. Kind of data set: Randomized placebo-controlled trial: Aberrant Behavior Checklist (ABC), parent questionnaire. Particulars: lower = less problems; for ABC Hyperactivity, estimated effect / ABC Inappropriate speech, estimated effect / ABC Irritability, estimated effect / ABC Lethargy, estimated effect / ABC Stereotyped behavior, estimated effect / ABC Total Score, estimated effect: vs placebo, mixed-model regression, calcium salt. It is filed as in vivo, human. The source says:
The Aberrant Behavior Checklist (“ABC”) is a 58-item questionnaire that measures disruptive behaviors, including Irritability (15 items, range 0-45); Social Withdrawal (16 items, range 0-48); Stereotypy (7 items, range 0-21); Hyperactivity (16 items, range 0-48) and Inappropriate Speech (4 items, range 0-12). Each item is rated 0 to 3 with higher scores indicating greater severity. Multiple ASD clinical trials have used it and it has convergent and divergent validity. […] This two-arm double-blind randomized placebo-controlled parallel study with a 1:1 allocation was performed at Arkansas Children's Research Institute (Little Rock, Ark., USA) from 4 Jun. 2012 to 22 Nov. 2013. Parent and teacher questionnaires were requested at baseline and 6 and 12 weeks after starting treatment. Parents were asked to deliver baseline questionnaires to teachers or therapists. After the first visit, questionnaires were mailed to the parents and teachers at least 1 week prior to the target date of completion. Parents were asked to bring the completed teacher and parent 12-week questionnaires to the final assessment. Other questionnaires were returned in a preaddressed postage-paid envelope. The target dose of the intervention (INN: DL folinic acid calcium salt; USAN: leucovorin calcium) was 2 mg kg^−1 per day (maximum 50 mg per day) in two equally divided doses with half of the target dose given during the first 2 weeks. Dye-free, milk-product-free, vegetarian capsules were provided in three strengths (5, 10 and 25 mg) by Lee Silsby Compounding Pharmacy (Cleveland Heights, Ohio, USA). Certificate of analysis was provided for each capsule strength by an independent analytical service (Eagle Analytical Services, Houston, Tex., USA) for each batch of capsules produced. In all cases, potency was at least 99%. Secondary outcomes. Secondary outcome measures included the Ohio Autism Clinical Impression Scale (OACIS), Vineland Adaptive Behavior Scale 2nd Edition (VABS) Survey Interview Form and several questionnaires. Parents and teachers were asked to complete the Aberrant Behavior Checklist (ABC), Social Responsiveness Scale (SRS) and Behavioral Assessment System for Children 2nd Edition (BASC). Only parents were asked to complete the Autism Impact Measure (AIM) and Autism Symptoms Questionnaire (ASQ). Secondary outcome measures were analyzed using the mixed-model regression. Because of the large number of secondary outcomes, correction for multiple comparisons was conducted using the false discovery rate.

The test system is the same in data set [2]. Put plainly: Randomized placebo-controlled trial: Autism Impact Measure (AIM). Type of data set: in vivo, human. Particulars: lower = less impact. The protocol:
The Autism Impact Measure (“AIM”) is a 45-item parent-reported measure of the frequency and impact of core ASD symptoms during the past 2 weeks using two 5-point scales of increasing severity ranging from 1 to 5.51 The Frequency and Impact scores range 45-225. This two-arm double-blind randomized placebo-controlled parallel study with a 1:1 allocation was performed at Arkansas Children's Research Institute (Little Rock, Ark., USA) from 4 Jun. 2012 to 22 Nov. 2013. Parent and teacher questionnaires were requested at baseline and 6 and 12 weeks after starting treatment. Parents were asked to deliver baseline questionnaires to teachers or therapists. After the first visit, questionnaires were mailed to the parents and teachers at least 1 week prior to the target date of completion. Parents were asked to bring the completed teacher and parent 12-week questionnaires to the final assessment. Other questionnaires were returned in a preaddressed postage-paid envelope. The target dose of the intervention (INN: DL folinic acid calcium salt; USAN: leucovorin calcium) was 2 mg kg^−1 per day (maximum 50 mg per day) in two equally divided doses with half of the target dose given during the first 2 weeks. Dye-free, milk-product-free, vegetarian capsules were provided in three strengths (5, 10 and 25 mg) by Lee Silsby Compounding Pharmacy (Cleveland Heights, Ohio, USA). Certificate of analysis was provided for each capsule strength by an independent analytical service (Eagle Analytical Services, Houston, Tex., USA) for each batch of capsules produced. In all cases, potency was at least 99%. Secondary outcomes. Secondary outcome measures included the Ohio Autism Clinical Impression Scale (OACIS), Vineland Adaptive Behavior Scale 2nd Edition (VABS) Survey Interview Form and several questionnaires. Parents and teachers were asked to complete the Aberrant Behavior Checklist (ABC), Social Responsiveness Scale (SRS) and Behavioral Assessment System for Children 2nd Edition (BASC). Only parents were asked to complete the Autism Impact Measure (AIM) and Autism Symptoms Questionnaire (ASQ). Secondary outcome measures were analyzed using the mixed-model regression. Because of the large number of secondary outcomes, correction for multiple comparisons was conducted using the false discovery rate.

For data set [3] the following is noted: cited from earlier work.
Where [4] appears, read: vs placebo, mixed-model regression.

Molecules are shown by their SMILES. Counter-ions that a name gives are not always drawn.

For the compound `Nc1nc2c(c(=O)[nH]1)N(C=O)C(CNc1ccc(C(=O)N[C@@H](CCC(=O)O)C(=O)O)cc1)CN2` (mixture of isomers) [Folinic acid, DL folinic acid calcium salt], in data set [1] (2 mg kg^−1 per day, 12 weeks, baseline 5.2), the “ABC Inappropriate speech, 12-week assessment mean” value was found to be 4.0 Raw Score. Moreover, the “ABC Stereotyped behavior, 12-week assessment mean” value in data set [1] (2 mg kg^−1 per day, 12 weeks, baseline 6.1) came out at 3.7 Raw Score. For the same compound, in data set [1] (2 mg kg^−1 per day, 12 weeks, baseline 13.1), the “ABC Lethargy, 12-week assessment mean” value was determined as 9.7 Raw Score. Moreover, the “ABC Irritability, 12-week assessment mean” value in data set [1] (2 mg kg^−1 per day, 12 weeks, baseline 13.4) was 9.1 Raw Score. Moreover, the “ABC Hyperactivity, 12-week assessment mean” value in data set [1] (2 mg kg^−1 per day, 12 weeks, baseline 25.0) amounted to 22.1 Raw Score. Also, the “ABC Total Score, 12-week assessment mean” value in data set [1] (2 mg kg^−1 per day, 12 weeks, baseline 62.7) came to 48.5 Raw Score. In data set [1], the “ABC Hyperactivity, estimated effect” value is listed as −1.8 Raw Score; the “ABC Inappropriate speech, estimated effect” value was −1.7 Raw Score; the “ABC Irritability, estimated effect” value is reported as −1.2 Raw Score; the “ABC Lethargy, estimated effect” value is on record as −1.4 Raw Score. In addition, in data set [1], the “ABC Stereotyped behavior, estimated effect” value was −0.9 Raw Score and the “ABC Total Score, estimated effect” value was −4.7 Raw Score. Also, in data set [1] (listed as folinic acid), the “ABC Hyperactivity, estimated effect” value was “significantly improved”; the “ABC Inappropriate speech, estimated effect” value is listed as “significantly improved”; the “ABC Irritability, estimated effect” value is given as “significantly improved”; the “ABC Lethargy, estimated effect” value is recorded as “significantly improved”. For the same compound, in data set [1] (listed as folinic acid), the “ABC Stereotyped behavior, estimated effect” value is given as “significantly improved” and the “ABC Total Score, estimated effect” value is “significantly improved”. Further, the “AIM Impact, 12-week assessment mean” value in data set [2] (2 mg kg^−1 per day, 12 weeks, baseline 105) stood at 87 Raw Scores. The “AIM Frequency, 12-week assessment mean” value in data set [2] (2 mg kg^−1 per day, 12 weeks, baseline 135) amounted to 114 Raw Scores. Also, in data set [2] (setting [4]), the “AIM Frequency, estimated effect” value is listed as −2.2 Raw Scores and the “AIM Impact, estimated effect” value is reported as 3.4 Raw Scores. The “Absorption following oral administration” value in data set [3] is “rapidly absorbed”.
